Molecules are shown by their SMILES. Calls of active or inactive are those of the source. The calls are words filed in the database; no cut-off is given here.

Data set [1] is described as follows: Passive permeability across MDCK cells. Type of data set: ADME, cell-based, Canis lupus familiaris. As to conditions: dog.
Data set [2] is described as follows: Protein binding in rat plasma. Type of data set: ADME, cell-free. As to conditions: read-out: PPB (converted).
The target in data set [3] is T1, Muscarinic acetylcholine receptor M4 (Homo sapiens) (UniProt P08173).
T1 sequence (whole entry): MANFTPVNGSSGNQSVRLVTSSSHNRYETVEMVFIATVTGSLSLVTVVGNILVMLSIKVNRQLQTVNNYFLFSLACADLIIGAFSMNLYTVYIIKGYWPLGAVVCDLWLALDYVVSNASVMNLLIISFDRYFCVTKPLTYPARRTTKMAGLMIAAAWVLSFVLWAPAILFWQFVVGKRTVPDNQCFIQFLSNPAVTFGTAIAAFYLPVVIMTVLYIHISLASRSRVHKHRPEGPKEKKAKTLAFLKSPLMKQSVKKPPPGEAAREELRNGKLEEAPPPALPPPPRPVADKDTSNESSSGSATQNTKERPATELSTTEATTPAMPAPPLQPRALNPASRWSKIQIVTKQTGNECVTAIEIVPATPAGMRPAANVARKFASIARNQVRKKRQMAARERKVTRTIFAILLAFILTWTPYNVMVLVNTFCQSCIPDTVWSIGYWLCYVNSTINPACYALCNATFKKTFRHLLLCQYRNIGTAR
The data set is described as follows: Activity at muscarinic M4 receptor expressing in CHONFAT cells assessed as potentiation of acetylcholine-induced calcium mobilization preincubated for 4 mins and measured 4 mins after acetylcholine stimulation by FLIPR assay. The format is functional, cell-based. On the technique in general: Calcium flux is commonly read through the fluorescence of an indicator in the cells.

Data set [4] deals with T2, Muscarinic acetylcholine receptor M1 (Homo sapiens) (UniProt P11229).
T2 sequence (whole entry): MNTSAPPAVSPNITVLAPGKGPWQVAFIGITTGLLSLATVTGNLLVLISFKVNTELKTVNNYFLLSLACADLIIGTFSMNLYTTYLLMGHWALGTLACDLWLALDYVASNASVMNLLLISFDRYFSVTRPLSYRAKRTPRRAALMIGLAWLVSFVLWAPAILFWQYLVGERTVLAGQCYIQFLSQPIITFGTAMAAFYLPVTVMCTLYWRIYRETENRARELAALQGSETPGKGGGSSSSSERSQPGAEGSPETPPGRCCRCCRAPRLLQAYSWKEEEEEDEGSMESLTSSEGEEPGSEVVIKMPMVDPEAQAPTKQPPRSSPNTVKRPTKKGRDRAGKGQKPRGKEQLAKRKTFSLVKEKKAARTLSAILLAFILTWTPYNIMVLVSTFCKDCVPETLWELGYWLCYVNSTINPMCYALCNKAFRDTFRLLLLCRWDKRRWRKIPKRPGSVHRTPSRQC
Briefly: Positive allosteric modulation of human muscarinic M1 receptor expressing in CHONFAT cells assessed as potentiation of acetylcholine-induced calcium mobilization preincubated for 4 mins and measured 4 mins after acetylcholine stimulation by FLIPR assay. The format is functional, cell-based.

The subject of a further data set is Plasma. Briefly: Plasma concentration in mouse scopolamine-induced memory deficit model at 10 mg/kg, ip. Type of data set: ADME, organism-based. Details: dose 10 mg/kg, route intraperitoneal. As to conditions: in vivo.
A short description of data set [5]: Fraction unbound in rat plasma. Type of data set: ADME, cell-free.
Data set [6] addresses T3, Muscarinic acetylcholine receptor M2 (Homo sapiens) (UniProt P08172).
T3 sequence (whole entry): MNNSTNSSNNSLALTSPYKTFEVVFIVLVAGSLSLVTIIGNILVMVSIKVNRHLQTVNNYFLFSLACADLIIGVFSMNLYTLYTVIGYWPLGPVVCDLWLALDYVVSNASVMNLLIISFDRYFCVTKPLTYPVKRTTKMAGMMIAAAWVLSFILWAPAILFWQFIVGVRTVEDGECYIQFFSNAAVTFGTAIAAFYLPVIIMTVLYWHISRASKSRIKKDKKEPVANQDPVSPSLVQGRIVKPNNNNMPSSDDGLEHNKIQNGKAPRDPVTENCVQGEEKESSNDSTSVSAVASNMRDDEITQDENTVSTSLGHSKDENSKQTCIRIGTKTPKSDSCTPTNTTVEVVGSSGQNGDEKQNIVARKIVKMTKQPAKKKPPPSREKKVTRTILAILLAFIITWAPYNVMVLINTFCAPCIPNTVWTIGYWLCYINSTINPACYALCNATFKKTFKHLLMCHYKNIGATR
The data set is described as follows: Activity at muscarinic M2 receptor expressing in CHONFAT cells assessed as potentiation of acetylcholine-induced calcium mobilization preincubated for 4 mins and measured 4 mins after acetylcholine stimulation by FLIPR assay. The format is functional, cell-based.

Another data set has as its system Rattus norvegicus. The data set is described as follows: Ratio of drug level in CSF to unbound drug level in plasma of Sprague-Dawley rat at 10 mg/kg, po after 2 hrs. As to conditions: in vivo.
Data set [7] can be described thus: Drug concentration in Sprague-Dawley rat brain at 10 mg/kg, po after 2 hrs. The format is ADME, organism-based. To be noted: read-out: Drug uptake. The arrangement: dose 10 mg/kg, route oral.
A short description of data set [8]: Drug concentration in Sprague-Dawley rat CSF at 10 mg/kg, po after 2 hrs. The format is ADME, organism-based, Cerebrospinal fluid. Details: dose 10 mg/kg, route oral. To be noted: read-out: Drug uptake.
Data set [9] has as its system Mus musculus. The data set is described as follows: Inhibition of scopolamine-induced memory deficit in mouse pretreated with 10 to 30 mg/kg, ip after 24 hrs by contexual fear conditioning assay. Type of data set: functional, organism-based.
A further data set concerns the target MDR1 (P-gp, ABCB1) (Homo sapiens, UniProt P08183). Briefly: in vitro. To be noted: not told.
Data set [10] can be described thus: Protein binding in human plasma. Type of data set: ADME, cell-free. As to conditions: read-out: PPB (converted).
A short description of data set [11]: Plasma concentration in Sprague-Dawley rat at 10 mg/kg, po after 2 hrs. The format is ADME, organism-based. The arrangement: dose 10 mg/kg, route oral.
The target of another data set is MDR1a (P-gp, ABCB1) (Rattus norvegicus, UniProt P43245). The data set is described as follows: in vitro. To be noted: not told.
Chain of MDR1a (P-gp, ABCB1) (P43245 whole entry): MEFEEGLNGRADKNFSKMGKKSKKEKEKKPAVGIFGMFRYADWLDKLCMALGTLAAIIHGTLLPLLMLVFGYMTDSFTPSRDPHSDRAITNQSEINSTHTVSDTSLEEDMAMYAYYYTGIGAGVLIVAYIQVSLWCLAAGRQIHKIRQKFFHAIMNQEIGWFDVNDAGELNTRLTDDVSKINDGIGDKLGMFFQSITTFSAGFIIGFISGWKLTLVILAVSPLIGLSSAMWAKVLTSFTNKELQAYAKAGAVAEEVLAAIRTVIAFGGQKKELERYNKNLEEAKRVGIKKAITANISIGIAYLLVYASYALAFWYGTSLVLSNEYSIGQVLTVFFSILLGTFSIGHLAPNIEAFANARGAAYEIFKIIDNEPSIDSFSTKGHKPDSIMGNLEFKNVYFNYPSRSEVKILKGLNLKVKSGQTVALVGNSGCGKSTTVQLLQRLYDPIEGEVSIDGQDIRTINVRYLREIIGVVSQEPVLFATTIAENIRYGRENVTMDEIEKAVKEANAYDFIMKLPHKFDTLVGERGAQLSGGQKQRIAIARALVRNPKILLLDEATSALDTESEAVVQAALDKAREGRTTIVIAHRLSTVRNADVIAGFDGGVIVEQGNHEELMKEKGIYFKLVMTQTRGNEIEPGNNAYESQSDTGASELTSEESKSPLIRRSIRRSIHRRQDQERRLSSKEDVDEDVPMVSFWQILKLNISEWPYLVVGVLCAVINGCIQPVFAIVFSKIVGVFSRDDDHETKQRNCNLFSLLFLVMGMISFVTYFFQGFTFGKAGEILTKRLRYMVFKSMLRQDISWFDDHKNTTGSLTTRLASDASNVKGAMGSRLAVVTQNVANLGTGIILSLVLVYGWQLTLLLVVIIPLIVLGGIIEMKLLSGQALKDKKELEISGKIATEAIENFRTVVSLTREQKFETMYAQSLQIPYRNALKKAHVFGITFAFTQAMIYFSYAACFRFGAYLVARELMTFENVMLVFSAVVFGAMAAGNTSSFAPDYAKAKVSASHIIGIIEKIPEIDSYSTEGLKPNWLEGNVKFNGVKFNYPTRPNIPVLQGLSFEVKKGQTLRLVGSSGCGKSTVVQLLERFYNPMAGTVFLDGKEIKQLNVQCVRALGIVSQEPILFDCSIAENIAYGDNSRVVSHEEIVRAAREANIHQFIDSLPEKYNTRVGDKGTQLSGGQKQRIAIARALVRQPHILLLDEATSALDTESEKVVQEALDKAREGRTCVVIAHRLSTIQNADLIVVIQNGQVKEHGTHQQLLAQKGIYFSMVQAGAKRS
Data set [12] in a line: Ratio of drug level in brain to plasma of Sprague-Dawley rat at 10 mg/kg, po after 2 hrs. The format is ADME, organism-based. Details: dose 10 mg/kg, route oral. To be noted: read-out: BPR.
The nature of data set [13]: Fraction unbound in human plasma. Type of data set: ADME, cell-free.
The target of data set [14] is Muscarinic acetylcholine receptor M3 (Homo sapiens) (UniProt P20309). The data set is described as follows: Activity at muscarinic M3 receptor expressing in CHONFAT cells assessed as potentiation of acetylcholine-induced calcium mobilization preincubated for 4 mins and measured 4 mins after acetylcholine stimulation by FLIPR assay. The format is functional, cell-based.
Chain of Muscarinic acetylcholine receptor M3 (Homo sapiens) (P20309 whole entry, looked up): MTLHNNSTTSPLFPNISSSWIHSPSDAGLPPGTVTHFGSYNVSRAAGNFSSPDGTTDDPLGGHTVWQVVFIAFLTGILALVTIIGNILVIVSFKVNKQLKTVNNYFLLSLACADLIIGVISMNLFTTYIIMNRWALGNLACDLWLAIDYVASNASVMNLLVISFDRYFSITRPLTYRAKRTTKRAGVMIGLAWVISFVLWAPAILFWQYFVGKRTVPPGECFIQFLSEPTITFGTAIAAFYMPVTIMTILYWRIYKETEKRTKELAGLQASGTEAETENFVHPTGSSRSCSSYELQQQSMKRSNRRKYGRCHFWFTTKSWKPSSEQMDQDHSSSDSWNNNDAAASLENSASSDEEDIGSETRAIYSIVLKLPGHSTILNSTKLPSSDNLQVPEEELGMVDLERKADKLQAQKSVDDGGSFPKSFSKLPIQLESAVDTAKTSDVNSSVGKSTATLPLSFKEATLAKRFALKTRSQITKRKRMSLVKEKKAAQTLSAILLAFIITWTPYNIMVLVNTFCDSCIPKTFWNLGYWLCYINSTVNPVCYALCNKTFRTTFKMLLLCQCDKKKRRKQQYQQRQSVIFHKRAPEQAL

Data set [15] has as its target T2, Muscarinic acetylcholine receptor M1 (Homo sapiens). Briefly: Positive allosteric modulation of human muscarinic M1 receptor expressing in CHONFAT cells assessed as potentiation of acetylcholine-induced calcium mobilization at 34 uM preincubated for 4 mins and measured 4 mins after acetylcholine stimulation by FLIPR assay relative to untreated control. Type of data set: functional, cell-based.

The species entered for data set [16] is Mus musculus. The data set is described as follows: Inhibition of scopolamine-induced memory deficit in mouse measured at plasma concentration of 2.5 uM after 24 hrs by contexual fear conditioning assay. Type of data set: functional, organism-based.
For data set [17], the species on record is Mus musculus. The data set is described as follows: Inhibition of scopolamine-induced memory deficit in mouse measured at plasma concentration of 1 uM after 24 hrs by contexual fear conditioning assay. The format is functional, organism-based.

Chain of MDR1 (P-gp, ABCB1) (P08183 whole entry): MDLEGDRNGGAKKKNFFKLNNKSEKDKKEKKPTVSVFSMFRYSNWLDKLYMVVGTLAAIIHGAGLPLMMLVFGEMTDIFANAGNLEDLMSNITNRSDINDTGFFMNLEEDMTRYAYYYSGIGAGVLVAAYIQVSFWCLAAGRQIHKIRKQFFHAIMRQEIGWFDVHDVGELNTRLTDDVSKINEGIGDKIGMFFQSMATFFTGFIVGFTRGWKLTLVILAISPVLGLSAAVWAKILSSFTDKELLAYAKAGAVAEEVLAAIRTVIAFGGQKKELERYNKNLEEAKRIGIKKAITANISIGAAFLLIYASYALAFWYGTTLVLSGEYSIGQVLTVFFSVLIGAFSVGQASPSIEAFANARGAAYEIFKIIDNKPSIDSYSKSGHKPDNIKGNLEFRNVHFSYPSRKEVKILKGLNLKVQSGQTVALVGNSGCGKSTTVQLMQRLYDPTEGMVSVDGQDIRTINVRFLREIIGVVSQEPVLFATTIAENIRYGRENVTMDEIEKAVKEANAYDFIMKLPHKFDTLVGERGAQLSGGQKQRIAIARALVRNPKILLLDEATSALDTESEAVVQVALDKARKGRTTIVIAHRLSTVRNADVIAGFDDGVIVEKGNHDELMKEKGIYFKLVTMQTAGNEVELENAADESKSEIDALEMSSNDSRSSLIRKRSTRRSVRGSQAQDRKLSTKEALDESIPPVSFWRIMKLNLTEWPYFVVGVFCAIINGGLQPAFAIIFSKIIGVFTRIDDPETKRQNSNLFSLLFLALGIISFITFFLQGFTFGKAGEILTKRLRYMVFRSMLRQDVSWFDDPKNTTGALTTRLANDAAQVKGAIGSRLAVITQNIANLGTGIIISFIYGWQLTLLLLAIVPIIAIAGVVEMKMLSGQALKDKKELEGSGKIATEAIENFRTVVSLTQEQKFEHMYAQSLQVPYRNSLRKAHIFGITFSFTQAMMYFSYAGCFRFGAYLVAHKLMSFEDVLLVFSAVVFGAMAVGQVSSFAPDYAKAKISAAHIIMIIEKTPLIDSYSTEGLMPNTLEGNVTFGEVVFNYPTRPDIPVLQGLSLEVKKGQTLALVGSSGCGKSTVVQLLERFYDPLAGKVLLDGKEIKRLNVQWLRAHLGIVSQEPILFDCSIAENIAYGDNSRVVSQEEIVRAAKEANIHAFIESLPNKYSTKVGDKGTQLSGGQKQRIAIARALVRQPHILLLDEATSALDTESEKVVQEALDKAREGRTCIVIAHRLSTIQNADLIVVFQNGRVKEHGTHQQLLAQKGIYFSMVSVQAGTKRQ
Description for MDR1 (P-gp, ABCB1): Efflux ratio assessed as human MDR1-mediated directional transport ratio from basolateral to apical over apical to basolateral by cell based assay
Description for MDR1a (P-gp, ABCB1): Efflux ratio assessed as rat MDR1a-mediated directional transport ratio from basolateral to apical over apical to basolateral by cell based assay

In general, Papp refers to the rate of passage across a membrane or cell layer, normalised by area and donor concentration. High values mean ready permeation, low ones poor permeation. Usually efflux ratio stands for the permeability from basolateral to apical divided by that in the opposite direction, in the common usage. As for `N#CC1(c2ccccn2)CCN(Cc2cc(C(=O)NC3CCOCC3)c(=O)n3ccccc23)CC1`, the Papp in data set [1] amounted to 33 ×10⁻⁶ cm/s. The fraction unbound in [2] was 0.268; in data set [5] it was 0.27; in data set [10] it was 0.49; in data set [13], 0.49. Further, the result in [3], in [6] and in data set [14] was inactive. In addition, the IP in data set [4] is 338 nM. In the data set on Plasma, this molecule returned a concentration of 2400 nM. Moreover, the Ratio with Rattus norvegicus is given as 0.3. Besides, the concentration at 2 h in data set [7] was determined as 559 nM; in [8] it was 215 nM; in data set [11], 2650 nM. Moreover, the inhibition entry in the data set with Mus musculus [9] is “Active”. In addition, the efflux ratio turned out to be 2.4 at MDR1 (P-gp, ABCB1) and 7.5 on MDR1a (P-gp, ABCB1). In addition, the Kp at 2 h in data set [12] is 0.21. In addition, in [15], the fold change (FC) was found to be 52.
`O=C(N[C@H]1CCCC[C@@H]1O)c1cc(CN2CCN(c3cc4ccccc4cn3)CC2)c2ccccn2c1=O`: in data set [1], the apparent permeability (Papp) stood at 29 ×10⁻⁶ cm/s. Also, the fraction unbound in data set [2] is 0.032; in data set [10], 0.087. Also, the result in data set [3], in data set [6] and in data set [14] was inactive. The IP in data set [4] came out at 110 nM. The inhibition result in the data set listed under Mus musculus [16] is “Active”.
Consider `N#CC1(c2ccccn2)CCN(Cc2cc(C(=O)O)c(=O)n3ccccc23)CC1` [MSD-M1PAM], for which the Papp in data set [1] was 18 ×10⁻⁶ cm/s. For the same molecule, the results for the fraction unbound in [2] and in data set [10] were 0.318 and 0.291, respectively. Further, the inhibition entry in the data set filed under Mus musculus [17] was “Active”. The Ratio in the data set on Rattus norvegicus worked out at 0.3. Further, the efflux ratio came to 0.5 on MDR1 (P-gp, ABCB1) and 1.4 at MDR1a (P-gp, ABCB1). Besides, in data set [11], the concentration at 2 h was 1480 nM.

Source of the values: ChEMBL document CHEMBL2203078, “Identification of amides as carboxylic Acid surrogates for quinolizidinone-based m1 positive allosteric modulators” (ACS Med Chem Lett, 2012).
